US8268754B2, “Substituted dihydroazole compound and pest control agent” (Nissan Chemical Industries, Ltd., priority 2007, dated 2012)

Assays:
Assay type in all cases: in vivo
[1] = tested on: Helicoverpa armigera; assay: Mortality test for Helicoverpa armigera (cabbage leaf dip); details: foliar, 144 h, drug solution 100 ppm, 2 instar larva, after 6 days, 25° C., 12 replications
Experimental: A 10% emulsifiable concentrate of the compound of the present invention (depending on the type of the compound, a 10% wettable powder was subjected to the test) was diluted with water containing a spreader to prepare a drug solution in a concentration of 100 ppm. In this drug solution, a leaf of cabbage was immersed for about 10 seconds and was air-dried and then put into a petri dish. In the petri dish, one 2 instar larva of Helicoverpa armigera per petri dish was released and the petri dish was capped and stored in a thermostatic room of 25° C. The number of killed larvae after 6 days was counted and the mortality was calculated from the same calculation formula as that in Test Example 1. Here, the test was carried out in 12 replications.

[2] = tested on: Planococcus kraunhiae; assay: Mortality test for Planococcus kraunhiae (kidney bean leaf spray); details: 144 h, drug solution 500 ppm, sprayed 2.5 mL per cup, 1 instar larvae, after 6 days, 25° C.
Experimental: (§1) In a styrol cup having an inner diameter of 7 cm, a wet filtration paper was laid, and on the paper, a leaf of kidney bean cut out so as to have the same diameter as the inner diameter of the cup was laid, followed by inoculating the leaf with ten 1 instar larvae of Planococcus kraunhiae per leaf. A 10% emulsifiable concentrate of the compound of the present invention (depending on the type of the compound, a 10% wettable powder was subjected to the test) was diluted with water containing a spreader to prepare a drug solution in a concentration of 500 ppm. The drug solution was sprayed using a rotary spray tower in an amount of 2.5 mL per styrol cup and the cup was capped and stored in a thermostatic room of 25° C. The number of killed larvae after 6 days was counted and the mortality was calculated from the same calculation formula as that in Test Example 1. Here, the test was carried out in two replications.

[3] = tested on: Tetranychus urticae; assay: Mortality test for Tetranychus urticae (kidney bean leaf spray); details: 144 h, drug solution 500 ppm, sprayed 2.5 mL per cup, larvae, after 6 days, 25° C.
Experimental: as §1, with “ten” for “ten 1 instar”, “Tetranychus urticae” for “Planococcus kraunhiae”

[4] = tested on: Aulacophora femoralis; assay: Mortality test for Aulacophora femoralis (cucumber leaf dip); details: foliar, 144 h, drug solution 500 ppm, 2 instar larvae, after 6 days, 25° C.
Experimental: (§2) A 10% emulsifiable concentrate of the compound of the present invention (depending on the type of the compound, a 10% wettable powder was subjected to the test) was diluted with water containing a spreader to prepare a drug solution in a concentration of 500 ppm. In this drug solution, a leaf of cucumber was immersed for about 10 seconds and was air-dried and then put into a petri dish. In the petri dish, five 2 instar larvae of Aulacophora femoralis per petri dish were released and the petri dish was capped and stored in a thermostatic room of 25° C. The number of killed larvae after 6 days was counted and the mortality was calculated from the same calculation formula as that in Test Example 1. Here, the test was carried out in two replications.

[5] = tested on: Frankliniella occidentalis; assay: Mortality test for Frankliniella occidentalis (kidney bean leaf spray); details: 48 h, drug solution 500 ppm, sprayed 2.5 mL per cup, 1 instar larvae, after 2 days, 25° C.
Experimental: as §1, with “Frankliniella occidentalis” for “Planococcus kraunhiae”, “2” for “6”

[6] = tested on: Plutella xylostella; assay: Mortality test for Plutella xylostella (cabbage leaf dip); details: foliar, 144 h, drug solution 100 ppm (mark *), 2 instar larvae, after 6 days, 25° C.
Experimental: as §2, with “[…]” for “500”, “cabbage” for “cucumber”, “Plutella xylostella” for “Aulacophora femoralis”, “following” for “same”, “formula: Mortality (%)=(number of killed insects/number of released insects)×100.” for “formula as that in Test Example 1.”

[7] = tested on: Bemisia argentifolii; assay: Mortality test for Bemisia argentifolii (tomato leaf spray); details: 144 h, drug solution 500 ppm, sprayed 2.5 mL per cup, eggs on tomato leaf, killed larvae after 6 days, 25° C.
Experimental: In a styrol cup having an inner diameter of 7 cm, a wet filtration paper was laid, and on the paper, a cut-out leaf of tomato on which Bemisia argentifolii laid eggs (10 eggs/leaf) was laid. A 10% emulsifiable concentrate of the compound of the present invention (depending on the type of the compound, a 10% wettable powder was subjected to the test) was diluted with water containing a spreader to prepare a drug solution in a concentration of 500 ppm. The drug solution was sprayed using a rotary spray tower in an amount of 2.5 mL per styrol cup and the cup was capped and stored in a thermostatic room of 25° C. The number of killed larvae after 6 days was counted and the mortality was calculated from the same calculation formula as that in Test Example 1. Here, the test was carried out in two replications.

[8] = tested on: Liriomyza trifolii; assay: Mortality test for Liriomyza trifolii (kidney bean leaf dip); details: foliar, 144 h, drug solution 500 ppm, eggs on kidney bean leaf, killed larvae after 6 days, 25° C.
Experimental: A 10% emulsifiable concentrate of the compound of the present invention (depending on the type of the compound, a 10% wettable powder was subjected to the test) was diluted with water containing a spreader to prepare a drug solution in a concentration of 500 ppm. In this drug solution, a leaf of kidney bean which was cut out to a diameter of 7 cm, on which Liriomyza trifolii laid eggs (10 eggs/leaf) was immersed for about 10 seconds and was air-dried and then laid on a wet filtration paper laid in a styrol cup having an inner diameter of 7 cm. The styrol cup was capped and stored in a thermostatic room of 25° C. The number of killed larvae after 6 days was counted and the mortality was calculated from the same calculation formula as that in Test Example 1. Here, the test was carried out in two replications.

O=C(NCc1ccc(C2=NCC(c3cc(Cl)cc(Cl)c3)(C(F)(F)F)C2)cc1Br)C1CC1 (centres unmarked) [No. 1-001, 2-bromo-N-cyclopropylcarbonyl-4-[4-(3,5-dichlorophenyl)-4-trifluoromethyl-4,5-dihydro-3H-pyrrole-2-yl] benzylamine]
≥ 80%: mortality at 100 ppm [1]

FC(F)(F)C1(c2cc(Cl)cc(Cl)c2)CN=C(c2ccc(-n3cncn3)cc2)C1 (centres unmarked) [No. 3-001, 4-(3,5-dichlorophenyl)-2-[4-(1,2,4-triazole-1-yl)phenyl]-4-trifluoromethyl-4,5-dihydro-3H-pyrrole]
≥ 80%: mortality at 500 ppm [2] | mortality at 500 ppm [3] | mortality at 500 ppm [4] | mortality at 500 ppm [5] | mortality at 100 ppm [6] | mortality at 500 ppm [7] | mortality at 500 ppm [8]
